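Results reflect a 48-hour exposure of cells in 96-well plates to compound at five concentrations. GI50: concentration for 50% inhibition of growth.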 Calls of active or inactive are those of the source. Cut-off read from the data, not from the text of the source: active = GI50 up to about 1.1 µM and inactive = higher.
Columns and labels:
Experiment in all cases: growth of human tumour cells (NCI), 48 h
LOX IMVI = system: LOX IMVI
RPMI-8226 = system: RPMI-8226
HOP-92 = system: HOP-92
A549 = system: A549
SN12C = system: SN12C
SNB-75 = system: SNB-75
HL-60 = system: HL-60
MDA-MB-435 = system: MDA-MB-435
SF-268 = system: SF-268
OVCAR-3 = system: OVCAR-3
Hs-578T = system: Hs-578T
T47D = system: T47D
786-0 = system: 786-0
PC-3 = system: PC-3
SK-MEL-28 = system: SK-MEL-28
UACC-257 = system: UACC-257
Malme-3M = system: Malme-3M
MDA-MB-231 = system: MDA-MB-231
HOP-62 = system: HOP-62
RXF 393 = system: RXF 393

SMILES | GI50 (LOX IMVI) | GI50 (RPMI-8226) | GI50 (HOP-92) | GI50 (A549) | GI50 (SN12C) | GI50 (SNB-75) | GI50 (HL-60) | GI50 (MDA-MB-435) | GI50 (SF-268) | GI50 (OVCAR-3) | GI50 (Hs-578T) | GI50 (T47D) | GI50 (786-0) | GI50 (PC-3) | GI50 (SK-MEL-28) | GI50 (UACC-257) | GI50 (Malme-3M) | GI50 (MDA-MB-231) | GI50 (HOP-62) | GI50 (RXF 393)
C=CC1ON(C)CCc2cc(OC)c(OC)cc21 (centres undefined) | > 100 µM (inactive) | > 100 µM (inactive) | > 100 µM (inactive) | > 100 µM (inactive) | > 100 µM (inactive) | > 100 µM (inactive) | > 100 µM (inactive) | > 100 µM (inactive) | 39.6 µM (inactive) | > 100 µM (inactive) | > 100 µM (inactive) | 83.2 µM (inactive) | > 100 µM (inactive) | > 100 µM (inactive) | > 100 µM (inactive) | > 100 µM (inactive) | > 100 µM (inactive) | > 100 µM (inactive) | > 100 µM (inactive) | 
O=C(O)/C=C/c1ccc2c(c1)CC1(Cc3ccccc3C1)C2 | 38.1 µM (inactive) | 96.8 µM (inactive) | 52.2 µM (inactive) | 34.8 µM (inactive) | 44.5 µM (inactive) |  | 37.5 µM (inactive) | 80.5 µM (inactive) |  | 27.7 µM (inactive) | > 100 µM (inactive) | > 100 µM (inactive) | > 100 µM (inactive) | 53.6 µM (inactive) |  | > 100 µM (inactive) | 78.2 µM (inactive) | > 100 µM (inactive) | 49.5 µM (inactive) | 94 µM (inactive)
N#Cc1c(Cl)c2ccccc2n2c1nc1ccccc12 | 10.8 µM (inactive) | 31.3 µM (inactive) | 19.7 µM (inactive) | > 100 µM (inactive) | 25.4 µM (inactive) | 60.4 µM (inactive) | 5.33 µM (inactive) | 56.1 µM (inactive) | 27.2 µM (inactive) | 36.5 µM (inactive) | 17.7 µM (inactive) | 27.2 µM (inactive) | 19.7 µM (inactive) | 31 µM (inactive) | 79.3 µM (inactive) | 42.4 µM (inactive) |  | 23.8 µM (inactive) | 38 µM (inactive) | 22.6 µM (inactive)
Cc1cc(C)c2c(=O)n(CC(O)CN3CCN(CCOCCO)CC3)sc2n1 (centres undefined) | 18.8 µM (inactive) |  | 19.4 µM (inactive) | 32.4 µM (inactive) | 18.4 µM (inactive) | 1.65 µM (inactive) | 20.5 µM (inactive) | 17.4 µM (inactive) | 20.8 µM (inactive) | 22.4 µM (inactive) | 28.5 µM (inactive) | 19.1 µM (inactive) | 16.9 µM (inactive) | 18.7 µM (inactive) | 17.2 µM (inactive) | 12.2 µM (inactive) | 18.8 µM (inactive) | 19.1 µM (inactive) | 28.4 µM (inactive) | 4.68 µM (inactive)
CCCc1c2c3ccccc3nc-2nc2ccccn12 | 41.4 µM (inactive) | 41.9 µM (inactive) | 36.5 µM (inactive) | 83.4 µM (inactive) | 73.5 µM (inactive) | > 100 µM (inactive) | 35.6 µM (inactive) | 94.4 µM (inactive) | 24.4 µM (inactive) | 56 µM (inactive) | > 100 µM (inactive) | > 100 µM (inactive) | 28.4 µM (inactive) | 64.6 µM (inactive) | > 100 µM (inactive) | > 100 µM (inactive) | 61.7 µM (inactive) | 72.1 µM (inactive) | 25.4 µM (inactive) | 
Cc1ccc2c(c1)C(=O)N1CCC[C@H]1C=N2 | 23.6 µM (inactive) | 10.1 µM (inactive) | 25.5 µM (inactive) | 30.7 µM (inactive) | 23 µM (inactive) |  |  | 16.7 µM (inactive) | 31.3 µM (inactive) | 19.1 µM (inactive) | 15.3 µM (inactive) | 18.4 µM (inactive) | 27.1 µM (inactive) | 17.7 µM (inactive) | 22.7 µM (inactive) | 21.9 µM (inactive) | 18.7 µM (inactive) | 19.2 µM (inactive) | 27.7 µM (inactive) | 4.21 µM (inactive)
CSC1=C(C#N)C(=O)N(c2ccc(Cl)cc2)C(=O)C1C#N (centres undefined) | > 100 µM (inactive) | 33.8 µM (inactive) | 28.9 µM (inactive) | > 100 µM (inactive) | > 100 µM (inactive) |  | > 100 µM (inactive) | > 100 µM (inactive) | > 100 µM (inactive) | > 100 µM (inactive) | 77.8 µM (inactive) | 74.8 µM (inactive) | > 100 µM (inactive) | > 100 µM (inactive) | > 100 µM (inactive) | > 100 µM (inactive) | > 100 µM (inactive) | > 100 µM (inactive) | > 100 µM (inactive) | > 100 µM (inactive)
CC(=O)O[C@H]1C(=O)[C@@]2(C)C(C(OC(=O)c3ccccc3)[C@]3(O)CC(OC(=O)C(O)C(NC(=O)c4ccccc4)c4ccc(F)cc4)C(C)=C1C3(C)C)[C@]1(OC(C)=O)CO[C@@H]1C[C@@H]2O (some centres undefined) | 0.00129 µM (active) | < 0.001 µM (active) | 3.43 µM (inactive) | 0.00104 µM (active) | 0.00158 µM (active) | 0.00168 µM (active) | < 0.001 µM (active) | < 0.001 µM (active) | < 0.001 µM (active) | < 0.001 µM (active) | < 0.001 µM (active) | 0.00966 µM (active) | 0.00152 µM (active) | < 0.001 µM (active) |  | 1.17 µM (inactive) |  | 0.00181 µM (active) | 0.00233 µM (active) | < 0.001 µM (active)
C=C(C(N)=O)c1ccc([N+](=O)[O-])o1 | 10.1 µM (inactive) |  | 6.49 µM (inactive) | 15.1 µM (inactive) | 10.3 µM (inactive) | 9.46 µM (inactive) | 3.16 µM (inactive) | 2.56 µM (inactive) | 8.36 µM (inactive) | 8.36 µM (inactive) | 36.4 µM (inactive) | 20.5 µM (inactive) | 11.2 µM (inactive) | 30.7 µM (inactive) | 2.67 µM (inactive) | 8.51 µM (inactive) | 2.2 µM (inactive) | 13.8 µM (inactive) | 22.8 µM (inactive) | 3.08 µM (inactive)
CC[C@@H]([C@H](O)c1ccccc1Cl)[N+](=O)[O-] | > 100 µM (inactive) | 91.8 µM (inactive) | > 100 µM (inactive) | > 100 µM (inactive) | > 100 µM (inactive) | 65.6 µM (inactive) | 7.82 µM (inactive) | 25.8 µM (inactive) | > 100 µM (inactive) | > 100 µM (inactive) | > 100 µM (inactive) | > 100 µM (inactive) | > 100 µM (inactive) | 61.4 µM (inactive) | > 100 µM (inactive) | > 100 µM (inactive) |  | > 100 µM (inactive) | 54.6 µM (inactive) | > 100 µM (inactive)
CO[C@H](C)[C@](O)(C(=O)OCC1=CCN2CC[C@@H](O)[C@H]12)C(C)C | > 100 µM (inactive) | > 100 µM (inactive) | > 100 µM (inactive) | > 100 µM (inactive) | > 100 µM (inactive) | > 100 µM (inactive) | > 10 µM (inactive) | > 100 µM (inactive) | > 100 µM (inactive) | > 100 µM (inactive) | > 100 µM (inactive) | > 100 µM (inactive) | > 100 µM (inactive) | > 100 µM (inactive) | > 100 µM (inactive) | > 100 µM (inactive) |  | > 100 µM (inactive) | > 100 µM (inactive) | 
O=C(CCc1cccc(O)c1)NCCc1cccc(O)c1 | > 100 µM (inactive) |  | > 100 µM (inactive) | > 100 µM (inactive) | > 100 µM (inactive) |  | > 100 µM (inactive) | > 100 µM (inactive) | > 100 µM (inactive) | > 100 µM (inactive) | > 100 µM (inactive) | > 100 µM (inactive) | > 100 µM (inactive) | > 100 µM (inactive) | > 100 µM (inactive) | > 100 µM (inactive) | > 100 µM (inactive) | > 100 µM (inactive) | > 100 µM (inactive) | > 100 µM (inactive)
Cc1cccc(/C=N/NC(=S)NCc2ccccn2)n1 | 14.7 µM (inactive) | 44.6 µM (inactive) | 25.9 µM (inactive) | 27.1 µM (inactive) | 30.6 µM (inactive) | 17.6 µM (inactive) | 23.4 µM (inactive) | 36.9 µM (inactive) | 20 µM (inactive) | 74.5 µM (inactive) | > 93.5 µM (inactive) | 31 µM (inactive) | 17.9 µM (inactive) | 18.5 µM (inactive) | 45.8 µM (inactive) | 41.7 µM (inactive) | 22.1 µM (inactive) | 33.5 µM (inactive) | 22.2 µM (inactive) | 
O=C(c1c(Cl)cc(Cl)cc1Cl)N(Cc1cccnc1)C(=S)N(Cc1cccnc1)C(=O)c1c(Cl)cc(Cl)cc1Cl | 3.65 µM (inactive) | 1.27 µM (inactive) | 3.25 µM (inactive) | 32.1 µM (inactive) | 5.68 µM (inactive) | 5.35 µM (inactive) | 7.23 µM (inactive) | 8.67 µM (inactive) | 6.97 µM (inactive) | 3.77 µM (inactive) | 23.9 µM (inactive) | 14.4 µM (inactive) | 2.26 µM (inactive) | 5.96 µM (inactive) | 11 µM (inactive) | 7.26 µM (inactive) | 19.5 µM (inactive) | 20.4 µM (inactive) | 4.35 µM (inactive) | 
O=C(O)Cc1c(O)ccc2ccccc12 | > 100 µM (inactive) | > 100 µM (inactive) | > 100 µM (inactive) | > 100 µM (inactive) | > 100 µM (inactive) | > 100 µM (inactive) |  | > 100 µM (inactive) | > 100 µM (inactive) | > 100 µM (inactive) | > 100 µM (inactive) | > 100 µM (inactive) | > 100 µM (inactive) | > 100 µM (inactive) | > 100 µM (inactive) | > 100 µM (inactive) | > 100 µM (inactive) | > 100 µM (inactive) | > 100 µM (inactive) | > 100 µM (inactive)
